What all share (type): cell-based, human
Data set [1] relates to Hpac-spheres. In words: Inhibition of sphere formation by stem cell signaling inhibitors. The settings on record: inhibitor added into sphere culture medium, observed after 7 days. On the procedure:
(§1) For sphere formation, pancreatic cancer cell lines were plated 1000 cell/mL in serum-free DMEM/F12 supplemented with EGF (10 ng/mL, R&D Systems Inc., Minneapolis, Minn.), bFGF ([…], R&D Systems Inc.), 1 ITS (insulin transferring selenium, Gibco) and 0.5% FBS on Corning Costar ultra-low attached 6-well culture dishes (Corning Inc., Corning, N.Y., US), and cultured for 7-10 days. The adherent cells cultured with the same media by attaching on culture plates (Nalgene Nunc Int., Rochester, N.Y.) were used as a control group.
Well-known stem cell signaling inhibitors DAPT (Calbiochem, San Diego, Calif., USA), Cyclopamine-KAAD (Calbiochem, San Diego, Calif., USA), LiCl (Sigma-Aldrich, Inc., St. Louis, Mo.), ATRA (Sigma-Aldrich, Inc., St. Louis, Mo.), OV (Sigma-Aldrich, Inc., St. Louis, Mo.) were added added into sphere culture medium, and cultured. After 7 days, sphere formation was observed.

The test system of data set [2] is Hpac cell line. The data set can be described thus: Clonogenic assay of GLRX3 knock-down cell line. The settings on record: soft agar, 3-4 weeks, vs control cell line. On the procedure: (§2) For clonogenic assay, 0.6% agar in cell media was boiled, hardened on 24-well plate (lower layer media). The cells at density of 1000 cell/well and 0.3% agar-cell media (upper layer media) were mixed, and hardened on lower layer media. Once 0.3% upper layer media was hardened, 500 μL/well of media was added on the upper layer media. Adding the media every third day, the cells were cultured for 3-4 weeks. Afterward, the media on agar was removed, stained with crystal violet to count the number of colony.

Data set [3] has as its system GLRX3. In words: GLRX3 mRNA and protein expression in GLRX3 knock-down cell line (PCR and western blot). The settings on record: Hpac cell line transfected with shRNA, puromycin-selected clones, vs control shRNA. As to the method:
(§3) Selection marker was puromycin ([…]).

The subject of data set [4] is Hpac cell line. In words: Sphere culture of GLRX3 knock-down cell line. The settings on record: sphere-cultured for 7 days, vs control cell line. On the procedure: as §1, §2
Data set [5] has as its system Hpac cell line. The data set can be described thus: Doubling time assay (cell proliferation) of GLRX3 knock-down cell line. The note with it: GLRX3 k/d cell line compared to the control, counted for 5 days. On the procedure: as §3
In data set [6] the test system is Hpac cell line. In words: Wound-healing assay of GLRX3 knock-down cell line. The settings on record: GLRX3 k/d cell line compared to the control. As to the method: as §3
In data set [7] the test system is CFAPC-1 cells. In words: Fluorescence-Activated Cell Sorting of CD24/CD44/ESA after GLRX3 siRNA transfection. The note with it: 72 hours after transfection; decreased from 70.4% (control). As to the method: To inhibit GLRX3, siRNA (invitrogen Stealth™ siRNA duplex oligoribonucleotides) to GLRX3 was used. Sense siRNA sequence was UGAGGGAGUUCUUUAGCUAACUCUG, and antisense siRNA sequence was CAGAGUUAGCUAAAGAACUCCCUCA. Med GC (invitrogen) was used as negative control siRNA. CFAPC-1 cells were transfected with GLRX3 or negative control siRNA using RNAiMAX (invtirogen, Carlsbad, Calif., US), and incubated for 72 hours. The cells were treated with accutase (Sigma-Aldrich, St. Louis, Mo.) to prepare suspensions with the same number of single cells. Afterward, the cells were stained with PE-CD24 (BD Biosciences PharMingen, San Diego, Calif.), APC-CD44 (BD Biosciences PharMingen, San Diego, Calif.) and FITC-ESA (BD Biosciences PharMingen, San Diego, Calif.). Fluorescence-Activated Cell Sorting was carried out using BD LSR II (BD Biosciences, Franklin Lakes, N.J.) and analyzed by BD FACSDiva software.

The values that follow come from US9164105B2, “Pancreatic cancer biomarker using the characteristics of pancreatic cancer stem cells, and use thereof” (INDUSTRY-ACADEMIC COOPERATION FOUNDATION, YONSEI UNIVERSITY, priority 2012, dated 2015).

Take `CC1=C(/C=C/C(C)=C/C=C/C(C)=C/C(=O)O)C(C)(C)CCC1` [ATRA]: the “ability to form sphere in Hpac-spheres” value in data set [1] was “completely inhibited or reduced”.

For `C[C@H](NC(=O)Cc1cc(F)cc(F)c1)C(=O)N[C@H](C(=O)OC(C)(C)C)c1ccccc1` [DAPT], the “ability to form sphere in Hpac-spheres” value in data set [1] is reported as “completely inhibited or reduced”.

For `CC1=C2C[C@H]3[C@@H](CC=C4CC(=O)CC[C@@]43C)[C@@H]2CC[C@]12O[C@@H]1C[C@H](C)CN(CCNC(=O)CCCCCNC(=O)CCc3ccccc3)[C@H]1[C@H]2C` [KAAD, Cyclopamine-KAAD], in data set [1], the “ability to form sphere in Hpac-spheres” value was “completely inhibited or reduced”.

For the molecule `[Cl-].[Li+]` [LiCl], the “ability to form sphere in Hpac-spheres” value in data set [1] is “completely inhibited or reduced”.

Regarding `[Na+].[Na+].[Na+].[O]=[V]([O-])([O-])[O-]` [OV], in data set [1], the “ability to form sphere in Hpac-spheres” value is “completely inhibited or reduced”.

Consider “shRNA to GLRX3: shRNA plasmid to GLRX3, sequence GTGGAAATTCTTCACAAACAT (SEQ ID NO:4), used to establish the GLRX3 knock-down Hpac line (guide GTGGAAATTCTTCACAAACAT; listed as Homo sapiens)”, for which the “colonies formed (viability and proliferation)” value in data set [2] was “fewer colonies”. Further, in data set [3], the “Expressions of mRNA and protein of GLRX3” value is listed as “significantly reduced”. The “ability to form spheres” value in data set [4] is given as “not formed”. For the same molecule, the cell proliferation rate entry in data set [5] was “decreased”. The cell migration activity entry in data set [6] is recorded as “decreased”.

As for “siRNA to GLRX3: Stealth siRNA duplex to GLRX3; sense UGAGGGAGUUCUUUAGCUAACUCUG (SEQ ID NOs:2 and 3) (chain 1 UGAGGGAGUUCUUUAGCUAACUCUG; chain 2 CAGAGUUAGCUAAAGAACUCCCUCA; listed as RNA, chemistry not given here; listed as Homo sapiens)”, the “fraction of CD24+/CD44+/ESA+” value in data set [7] was found to be 29.3%.
